According to BigSolDB 2.1:

CCOc1ccccc1C(N)=O
solubility (mole fraction)
Settings | 288.15 K | 293.15 K | 298.15 K | 303.15 K | 308.15 K | 313.15 K | 318.15 K | 323.15 K
in acetonitrile | 0.00524 | 0.0075 | 0.0101 | 0.0132 | 0.0176 | 0.0231 | 0.0302 | 0.0398
in ethanol | 0.011 | 0.0137 | 0.0171 | 0.0211 | 0.0265 | 0.0327 | 0.0402 | 0.0486
in ethyl acetate | 0.00336 | 0.00459 | 0.00639 | 0.00835 | 0.0112 | 0.0147 | 0.0196 | 0.0251
in isobutanol | 0.00816 | 0.00984 | 0.0126 | 0.0162 | 0.0208 | 0.0273 | 0.0354 | 0.0454
in methanol | 0.0154 | 0.018 | 0.0225 | 0.027 | 0.0328 | 0.0402 | 0.0492 | 0.0597
in n-propanol | 0.00832 | 0.0113 | 0.0142 | 0.0179 | 0.0227 | 0.0301 | 0.0389 | 0.0502
